According to the supplement of paper PMC10307832:

Experiments:
CX-5461 + Trametinib = compound: Cc1cnc(CNC(=O)c2c(=O)c3ccc(N4CCCN(C)CC4)nc3n3c2sc2ccccc23)cn1 [CX-5461] + CC(=O)Nc1cccc(-n2c(=O)n(C3CC3)c(=O)c3c(Nc4ccc(I)cc4F)n(C)c(=O)c(C)c32)c1 [Trametinib] (partner 0.02 µM); assay: relative viability (nuclei count vs DMSO), 5 days (fraction); higher = more cells survive
How it was run: (§1)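 The day after seeding in 1536-well plates, lung cancer cell lines were treated by pin tool with a single drug, or with a fixed anchor-drug dose together with five library-drug doses (not always all listed) in √10 steps. After 5 days, a combined fix-and-stain solution (final 0.05% Triton X-100, 1% formaldehyde, 1 ug/ml Hoechst) was added. Nuclei counted on 4× images gave relative viability as treated counts over vehicle counts, reported as the median of duplicate plates.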

IMD-0354 + Dasatinib = compound: O=C(Nc1cc(C(F)(F)F)cc(C(F)(F)F)c1)c1cc(Cl)ccc1O [IMD-0354] + Cc1nc(Nc2ncc(C(=O)Nc3c(C)cccc3Cl)s2)cc(N2CCN(CCO)CC2)n1 [Dasatinib] (partner 0.075 µM); assay: as above
How it was run: as §1

| Cell Line | relative viability (CX-5461 + Trametinib; first compound 0.01 µM) | relative viability (CX-5461 + Trametinib; first compound 0.03162 µM) | relative viability (CX-5461 + Trametinib; first compound 0.1 µM) | relative viability (CX-5461 + Trametinib; first compound 0.3162 µM) | relative viability (CX-5461 + Trametinib; first compound 1 µM) | relative viability (IMD-0354 + Dasatinib; first compound 0.04 µM) | relative viability (IMD-0354 + Dasatinib; first compound 0.1265 µM) | relative viability (IMD-0354 + Dasatinib; first compound 0.4 µM) | relative viability (IMD-0354 + Dasatinib; first compound 1.265 µM) | relative viability (IMD-0354 + Dasatinib; first compound 4 µM) |
| --- | --- | --- | --- | --- | --- | --- | --- | --- | --- | --- |
| NCI-H1975 | 0.39 | 0.317 | 0.367 | 0.395 | 0.298 | 0.421 | 0.398 | 0.233 | 0.128 | 0.135 |
| NCI-H1993 | 0.525 | 0.448 | 0.476 | 0.431 | 0.544 | 0.562 | 0.652 | 0.448 | 0.543 | 0.51 |
| RERF-LC-KJ | 0.853 | 0.908 | 0.694 | 0.89 | 0.644 | 1.08 | 0.727 | 0.614 | 0.208 | 0.251 |
| NCI-H23 | 0.421 | 0.372 | 0.407 | 0.442 | 0.285 | 0.836 | 0.82 | 0.384 | 0.275 | 0.227 |
| HCC-366 | 0.345 | 0.389 | 0.443 | 0.412 | 0.306 | 0.681 | 0.792 | 0.382 | 0.221 | 0.0518 |
| EMC-BAC-2 | 0.91 | 0.888 | 0.629 | 0.45 | 0.429 | 0.313 | 0.313 | 0.235 | 0.19 | 0.218 |
| NCI-H2405 | 0.652 | 0.594 | 0.724 | 0.575 | 0.649 | 0.213 | 0.242 | 0.217 | 0.249 | 0.116 |
| SK-MES-1 | 0.641 | 0.595 | 0.562 | 0.533 | 0.44 | 0.437 | 0.307 | 0.396 | 0.126 | 0.184 |
| NCI-H2170 | 0.987 | 0.976 | 0.971 | 0.952 | 0.862 | 0.577 | 0.737 | 0.408 | 0.335 | 0.186 |
| NCI-H2342 | 0.787 | 0.81 | 0.832 | 0.871 | 0.918 | 0.329 | 0.326 | 0.236 | 0.312 | 0.327 |
| EPLC-272H | 0.27 | 0.308 | 0.268 | – | 0.318 | 0.511 | 0.279 | 0.353 | 0.121 | 0.0731 |
| NCI-H1915 | 0.285 | 0.326 | 0.327 | 0.315 | 0.307 | 0.31 | 0.322 | 0.129 | 0.109 | 0.14 |
| NCI-H596 | 0.763 | 0.819 | 0.73 | 0.836 | 0.756 | 0.728 | 0.608 | 0.435 | 0.63 | 0.261 |
| NCI-H322M | 0.441 | 0.542 | 0.55 | 0.407 | 0.508 | 0.25 | 0.277 | 0.248 | 0.222 | 0.274 |
| NCI-H2228 | 0.553 | 0.489 | 0.418 | 0.432 | 0.236 | 0.538 | 0.487 | 0.373 | 0.184 | 0.202 |
| NCI-H522 | 0.734 | 0.86 | 0.815 | – | 0.751 | 0.845 | 0.904 | 0.556 | 0.573 | 0.404 |
| NCI-H647 | 0.589 | 0.331 | 0.494 | 0.451 | 0.218 | 0.263 | 0.0872 | 0.132 | 0.0483 | 0.0895 |

| Cell Line | relative viability (CX-5461 + Trametinib; first compound 0.01 µM) | relative viability (CX-5461 + Trametinib; first compound 0.03162 µM) | relative viability (CX-5461 + Trametinib; first compound 0.1 µM) | relative viability (CX-5461 + Trametinib; first compound 0.3162 µM) | relative viability (CX-5461 + Trametinib; first compound 1 µM) | relative viability (IMD-0354 + Dasatinib; first compound 0.04 µM) | relative viability (IMD-0354 + Dasatinib; first compound 0.1265 µM) | relative viability (IMD-0354 + Dasatinib; first compound 0.4 µM) | relative viability (IMD-0354 + Dasatinib; first compound 1.265 µM) | relative viability (IMD-0354 + Dasatinib; first compound 4 µM) |
| --- | --- | --- | --- | --- | --- | --- | --- | --- | --- | --- |
| LK-2 | 0.83 | 0.818 | 0.834 | 0.707 | 0.725 | 0.291 | 0.288 | 0.309 | 0.224 | 0.22 |
| NCI-H358 | 0.125 | 0.108 | 0.0974 | 0.102 | 0.0846 | 0.148 | 0.193 | 0.139 | 0.103 | 0.0831 |
| NCI-H2085 | 0.516 | 0.564 | 0.464 | 0.527 | 0.615 | 0.219 | 0.241 | 0.298 | 0.195 | 0.201 |
| NCI-H727 | 0.375 | 0.389 | 0.4 | 0.356 | 0.379 | 0.325 | 0.4 | 0.326 | 0.256 | 0.314 |
| NCI-H441 | 0.451 | 0.552 | 0.441 | 0.429 | 0.24 | 0.611 | 0.583 | 0.499 | 0.191 | 0.229 |
| LOU-NH91 | 0.796 | 0.813 | 0.777 | 0.613 | 0.78 | 0.616 | 0.555 | 0.258 | 0.102 | 0.205 |
| NCI-H3122 | 0.21 | 0.213 | 0.205 | 0.248 | 0.186 | 0.843 | 0.824 | 0.321 | 0.286 | 0.0969 |
| NCI-H460 | 0.21 | 0.142 | 0.0583 | 0.0956 | 0.0222 | 0.518 | 0.529 | 0.253 | 0.0582 | 0.0193 |
| NCI-H650 | 1.06 | 0.938 | 0.991 | 1.05 | 0.911 | 0.514 | 0.484 | 0.404 | 0.264 | 0.197 |
| NCI-H661 | 0.647 | 0.621 | 0.544 | 0.432 | 0.376 | 0.903 | 1.04 | 0.533 | 0.197 | 0.234 |
| NCI-H1944 | 0.47 | 0.406 | 0.419 | 0.314 | 0.448 | 0.21 | 0.212 | 0.22 | 0.167 | 0.114 |
| NCI-H1734 | 0.716 | 0.781 | 0.788 | 0.599 | 0.711 | 0.516 | 0.4 | 0.343 | 0.195 | 0.134 |
| LXF-289 | 0.757 | 0.647 | 0.751 | – | 0.677 | 0.249 | 0.244 | 0.207 | 0.0737 | 0.068 |
| H3255 | 0.614 | 0.639 | 0.671 | – | 0.558 | 0.303 | 0.348 | 0.264 | 0.235 | 0.282 |
| 201T | 0.706 | 0.73 | 0.693 | 0.75 | 0.721 | 0.625 | 0.586 | 0.479 | 0.283 | 0.346 |
| NCI-H2126 | 0.591 | 0.628 | 0.591 | 0.557 | 0.526 | 0.587 | 0.666 | 0.387 | 0.216 | 0.237 |
